Results published in ChEMBL document CHEMBL1134094, “Cell permeability as a parameter for lead generation in the protein Tyrosine kinase inhibition field” (2001).

Tests used:
Caco-2 [1] = assay: Computed polar surface area (PSA) for the compound […]; format: functional
Caco-2 [2] = assay: Substrate affinity was determined; passive; format: functional, cell-based; conditions: Homo sapiens
Caco-2 [3] = assay: Cell membrane permeability for the compound determined by human Caco-2 monolayer assay (10e-5 cm/min); format: functional

Row | Compound | 3D PSA (Caco-2 [1]) | Affinity (Caco-2 [2]) | Pm (Caco-2 [3])
1 | Nc1ncnc2c1c(-c1ccccc1)cn2Cc1ccccc1 | 46.6 |  | 
2 | COc1ccc(-c2cn(Cc3ccccc3)c3ccc(O)nc23)cc1 | 45 | passive | 90.5 10e-5*cm/min
3 | COc1ccc(Cn2cc(-c3ccc(OC)cc3)c3c(N)ncnc32)cc1 | 69.2 | passive | 61.9 10e-5*cm/min
4 | Oc1ccc2c(n1)c(-c1ccccc1)cn2Cc1ccccc1 | 33.4 |  | 
5 | COc1ccc(Cn2cc(-c3ccc(OC)cc3)c3nc(O)ccc32)cc1 | 55.1 | passive | 83 10e-5*cm/min
6 | COc1ccc(-c2cn(Cc3ccccc3)c3ncnc(N)c23)cc1 | 58.2 | passive | 78.2 10e-5*cm/min
